Key:
HepG2 [1] = experiment: drug sensitivity score (DSS) for viability; higher = more toxic; extreme values may be limits of the assay; details: 72 h
Caco-2 [2] = experiment: as above; details: 72 h
Vero E6 [3] = experiment: as above; details: 72 h
U2OS [4] = experiment: as above; details: 72 h
[5] = test system: A549-ACE2 infected with SARS-CoV-2; experiment: morphology score (similarity to uninfected cells); higher = more like uninfected cells; details: 24 h
A549-ACE2 [6] = experiment: drug-induced phospholipidosis relative to tamoxifen; higher = more phospholipidosis
[7] = test system: A549-ACE2 infected with SARS-CoV-2; experiment: SARS-CoV-2 infection rate relative to DMSO; higher = more infection; details: 24 h
HepG2 [8] = experiment: relative viability EC50 (midpoint between 100% and the lowest measured viability); higher = less toxic; details: 72 h
Caco-2 [9] = experiment: as above; details: 72 h
Vero E6 [10] = experiment: as above; details: 72 h
U2OS [11] = experiment: as above; details: 72 h
[12] = test system: A549-ACE2 infected with SARS-CoV-2; experiment: cell count relative to DMSO; higher = less toxic; details: 24 h
HepG2 [13] = experiment: cell viability relative to DMSO; higher = less toxic; details: 72 h
Caco-2 [14] = experiment: as above; details: 72 h
Vero E6 [15] = experiment: as above; details: 72 h
U2OS [16] = experiment: as above; details: 72 h
Calu-3 [17] = experiment: drug sensitivity score (DSS) for viability; higher = more toxic; extreme values may be limits of the assay; details: 72 h
Calu-3 [18] = experiment: relative viability EC50 (midpoint between 100% and the lowest measured viability); higher = less toxic; details: 72 h
Calu-3 [19] = experiment: cell viability relative to DMSO; higher = less toxic; details: 72 h
A549-ACE2 [20] = experiment: phospholipidosis EC50; higher = less potent phospholipidosis inducer

O=Nc1ccc(O)c2ncccc12 [NSC-3852]
Details	drug sensitivity score	relative viability EC50 [µM]
Caco-2 [2]	8	–
Caco-2 [9]	–	1.73
HepG2 [1]	6.9	–
HepG2 [8]	–	1.32
U2OS [4]	9.3	–
U2OS [11]	–	1.37
Vero E6 [3]	7.5	–
Vero E6 [10]	–	1.18

Details	SARS-CoV-2 infection rate, [7] [%]	cell count, [12] [%]	cell viability, Caco-2 [14] [%]	cell viability, HepG2 [13] [%]	cell viability, U2OS [16] [%]	cell viability, Vero E6 [15] [%]	morphology score, [5]
1 nM	–	–	86.2	103	93.5	99.8	–
10 nM	–	–	101	89.6	99.5	102	–
100 nM	–	–	98.5	101	96.2	98.4	–
0.3 µM	106	97	–	–	–	–	-0.15
1000 nM	–	–	81.6	77.7	70.2	71.5	–
3 µM	96	76	–	–	–	–	-0.09
10 µM	48	63	–	–	–	–	0.41
10000 nM	–	–	9.2	33	7.2	30.1	–
30 µM	14	41	–	–	–	–	0.64

drug-induced phospholipidosis [%], A549-ACE2 [6]
Details	0.3 µM	0.833333 µM	3.33333 µM	6.66667 µM	10 µM
24 h	0.34	-0.2	2.51	14.6	10.9
48 h	3.9	1.44	–	–	–
72 h	3.53	1.53	–	–	–

CC(C)C[C@H](NC(=O)[C@H](CCc1ccccc1)NC(=O)CN1CCOCC1)C(=O)N[C@@H](Cc1ccccc1)C(=O)N[C@@H](CC(C)C)C(=O)[C@@]1(C)CO1 [carfilzomib]
Details	drug sensitivity score	relative viability EC50 [µM]
Caco-2 [2]	34.7	–
Caco-2 [9]	–	0.0093
Calu-3 [17]	30.9	–
Calu-3 [18]	–	0.0267
HepG2 [1]	32.8	–
HepG2 [8]	–	0.018
U2OS [4]	34.1	–
U2OS [11]	–	0.0161
Vero E6 [3]	22.6	–
Vero E6 [10]	–	0.112

Details	SARS-CoV-2 infection rate, [7] [%]	cell count, [12] [%]	cell viability, Caco-2 [14] [%]	cell viability, Calu-3 [19] [%]	cell viability, HepG2 [13] [%]	cell viability, U2OS [16] [%]	cell viability, Vero E6 [15] [%]	morphology score, [5]
1 nM	–	–	91.9	104	94.6	96	100	–
10 nM	–	–	50.8	91.2	68.8	76.7	97.6	–
0.1 µM	51	69	–	–	–	–	–	0.25
100 nM	–	–	8.6	5.8	9	0.4	55.4	–
0.3 µM	24	49	–	–	–	–	–	0.29
1 µM	22	34	–	–	–	–	–	0.25
1000 nM	–	–	4.4	4.3	-0.4	-0.5	5.3	–
3 µM	20	26	–	–	–	–	–	0.18
10000 nM	–	–	6	1.7	-0.3	-0.3	2.3	–

Details	drug-induced phospholipidosis [%]
A549-ACE2 [6], 0.3 µM, 24 h	-37.6

c1cnc(N2CCN(Cc3ccc4c(c3)OCO4)CC2)nc1 [piribedil]
Details	drug sensitivity score	relative viability EC50 [µM]
Caco-2 [2]	0	–
Caco-2 [9]	–	> 10
Calu-3 [17]	0	–
Calu-3 [18]	–	> 10
HepG2 [1]	0	–
HepG2 [8]	–	> 10
U2OS [4]	0	–
U2OS [11]	–	> 10
Vero E6 [3]	0	–
Vero E6 [10]	–	> 10

Details	SARS-CoV-2 infection rate, [7] [%]	cell count, [12] [%]	cell viability, Caco-2 [14] [%]	cell viability, Calu-3 [19] [%]	cell viability, HepG2 [13] [%]	cell viability, U2OS [16] [%]	cell viability, Vero E6 [15] [%]	morphology score, [5]
1 nM	–	–	106	110	98.9	104	100	–
10 nM	–	–	96.7	98	112	98.5	105	–
100 nM	–	–	95.8	99.3	98.9	103	100	–
0.3 µM	109	98	–	–	–	–	–	-0.23
1000 nM	–	–	92.9	89.5	107	98	98.1	–
3 µM	104	96	–	–	–	–	–	-0.1
10 µM	99	97	–	–	–	–	–	-0.05
10000 nM	–	–	90.3	102	102	99.9	94.4	–
30 µM	88	104	–	–	–	–	–	0.26

drug-induced phospholipidosis [%], A549-ACE2 [6]
Details	0.3 µM	0.833333 µM	3.33333 µM	6.66667 µM	10 µM	30 µM
24 h	0.73	-0.78	-1.88	-1.98	-0.73	4.07
48 h	1.04	-0.48	-0.16	0.15	0.48	5.06
72 h	3.05	-0.292	-0.287	2.2	1.92	7.77

CCCOC(C(=O)OC1CCN(C)CC1)(c1ccccc1)c1ccccc1 [propiverine]
Details	drug sensitivity score	relative viability EC50 [µM]
Caco-2 [2]	0	–
Caco-2 [9]	–	> 10
Calu-3 [17]	0.4	–
Calu-3 [18]	–	> 10
HepG2 [1]	0.4	–
HepG2 [8]	–	> 10
U2OS [4]	0	–
U2OS [11]	–	> 10
Vero E6 [3]	0	–
Vero E6 [10]	–	> 10

Details	SARS-CoV-2 infection rate [%]	cell count [%]	cell viability [%]	morphology score	phospholipidosis EC50 [µM]
A549-ACE2 [20], 24 h	–	–	–	–	2.8
A549-ACE2 [20], 48 h	–	–	–	–	4.22
A549-ACE2 [20], 72 h	–	–	–	–	5.23
Caco-2 [14], 1 nM	–	–	102	–	–
Caco-2 [14], 10 nM	–	–	102	–	–
Caco-2 [14], 100 nM	–	–	102	–	–
Caco-2 [14], 1000 nM	–	–	95.5	–	–
Caco-2 [14], 10000 nM	–	–	89.7	–	–
Calu-3 [19], 1 nM	–	–	93.5	–	–
Calu-3 [19], 10 nM	–	–	95.1	–	–
Calu-3 [19], 100 nM	–	–	100	–	–
Calu-3 [19], 1000 nM	–	–	105	–	–
Calu-3 [19], 10000 nM	–	–	80.4	–	–
HepG2 [13], 1 nM	–	–	106	–	–
HepG2 [13], 10 nM	–	–	109	–	–
HepG2 [13], 100 nM	–	–	104	–	–
HepG2 [13], 1000 nM	–	–	117	–	–
HepG2 [13], 10000 nM	–	–	78	–	–
U2OS [16], 1 nM	–	–	107	–	–
U2OS [16], 10 nM	–	–	99	–	–
U2OS [16], 100 nM	–	–	99.5	–	–
U2OS [16], 1000 nM	–	–	97.8	–	–
U2OS [16], 10000 nM	–	–	96.8	–	–
Vero E6 [15], 1 nM	–	–	103	–	–
Vero E6 [15], 10 nM	–	–	95	–	–
Vero E6 [15], 100 nM	–	–	105	–	–
Vero E6 [15], 1000 nM	–	–	96.4	–	–
Vero E6 [15], 10000 nM	–	–	98.4	–	–
[5], 0.3 µM	–	–	–	0.19	–
[5], 3 µM	–	–	–	0.77	–
[5], 10 µM	–	–	–	0.9	–
[5], 30 µM	–	–	–	0.74	–
[7], 0.3 µM	95	–	–	–	–
[7], 3 µM	51	–	–	–	–
[7], 10 µM	17	–	–	–	–
[7], 30 µM	11	–	–	–	–
[12], 0.3 µM	–	101	–	–	–
[12], 3 µM	–	119	–	–	–
[12], 10 µM	–	120	–	–	–
[12], 30 µM	–	110	–	–	–

drug-induced phospholipidosis [%], A549-ACE2 [6]
Details	0.3 µM	0.833333 µM	3.33333 µM	6.66667 µM	10 µM	30 µM
24 h	2.28	8.59	66.7	91.7	105	109
48 h	4.59	4.15	46.3	84.9	98.8	115
72 h	4.64	4.08	43.7	80.2	95.8	123

From the supplement of paper PMC13380429
